Data reported in the supplement of paper PMC4862054.

Each compound was assayed on CAL-120 (assay: normalised response (% of control), CellTiter-Glo; higher = more viable cells (100 = DMSO, 0 = benzethonium chloride kill control)). Details: incubation time: 72 h.
Summary of the method: (§1)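 Compound was dispensed into 384-well plates at 5 concentrations in 10-fold steps spanning a 10,000-fold range specific to that compound. Breast cancer cell lines were added as 20 µl suspension and left for 72 h before CellTox Green fluorescence (485/520 nm) and then CellTiter-Glo luminescence, read after 10 min at room temperature. Each reported value is the normalised signal at one concentration, with 0.1 % DMSO set at 100 and a positive kill control at 0 on each plate.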

Structure (SMILES) | normalised response [%]
Cc1ccc(-n2nc(C(C)(C)C)cc2NC(=O)Nc2ccc(OCCN3CCOCC3)c3ccccc23)cc1 [Doramapimod] (1 nM) | 93.3
O=P1(NCCCl)OCCCN1CCCl (configuration not stated) [Ifosfamide] (1 nM) | 92.2

What follows are compounds tested on MDA-MB-436 in the same assay as above. Details: incubation time: 72 h.
Summary of the method: as §1

Structure (SMILES) | normalised response [%]
Cc1ccc(C(=O)N(CCCN)[C@@H](c2oc3cc(Cl)ccc3c(=O)c2Cc2ccccc2)C(C)C)cc1 (0.1 nM) | 106
Clc1ccc(Nc2nnc(Cc3ccncc3)c3ccccc23)cc1 [Vatalanib] (1 nM) | 98.9
COc1cc([C@@H]2c3cc4c(cc3[C@@H](O[C@@H]3O[C@@H]5CO[C@@H](C)O[C@H]5[C@H](O)[C@H]3O)[C@H]3COC(=O)[C@H]23)OCO4)cc(OC)c1O [Etoposide] (1 nM) | 128
CC1(C)NC(=O)N(c2ccc([N+](=O)[O-])c(C(F)(F)F)c2)C1=O [Nilutamide] (1 nM) | 102
CO[C@H]1/C=C\C=C(/C)C(=O)NC2=CC(=O)C(NCCN(C)C)=C(C[C@@H](C)C[C@H](OC)[C@H](O)[C@@H](C)/C=C(\C)[C@@H]1OC(N)=O)C2=O [Alvespimycin] (0.1 nM) | 97.5
O=C1CCC(N2C(=O)c3ccccc3C2=O)C(=O)N1 (configuration not stated) [Thalidomide] (1 nM) | 101
Cc1ccc(-n2nc(C(C)(C)C)cc2NC(=O)Nc2ccc(OCCN3CCOCC3)c3ccccc23)cc1 [Doramapimod] (1 nM) | 93.8
O=P1(NCCCl)OCCCN1CCCl (configuration not stated) [Ifosfamide] (1 nM) | 97.8

What follows are compounds tested on CAL-148 in the same assay as above. Details: incubation time: 72 h.
Summary of the method: as §1

Structure (SMILES) | normalised response [%]
Cc1ccc(C(=O)N(CCCN)[C@@H](c2oc3cc(Cl)ccc3c(=O)c2Cc2ccccc2)C(C)C)cc1 (0.1 nM) | 101
Clc1ccc(Nc2nnc(Cc3ccncc3)c3ccccc23)cc1 [Vatalanib] (1 nM) | 102
COc1cc([C@@H]2c3cc4c(cc3[C@@H](O[C@@H]3O[C@@H]5CO[C@@H](C)O[C@H]5[C@H](O)[C@H]3O)[C@H]3COC(=O)[C@H]23)OCO4)cc(OC)c1O [Etoposide] (1 nM) | 104
CC1(C)NC(=O)N(c2ccc([N+](=O)[O-])c(C(F)(F)F)c2)C1=O [Nilutamide] (1 nM) | 111
CO[C@H]1/C=C\C=C(/C)C(=O)NC2=CC(=O)C(NCCN(C)C)=C(C[C@@H](C)C[C@H](OC)[C@H](O)[C@@H](C)/C=C(\C)[C@@H]1OC(N)=O)C2=O [Alvespimycin] (0.1 nM) | 106
O=C1CCC(N2C(=O)c3ccccc3C2=O)C(=O)N1 (configuration not stated) [Thalidomide] (1 nM) | 96.4
Cc1ccc(-n2nc(C(C)(C)C)cc2NC(=O)Nc2ccc(OCCN3CCOCC3)c3ccccc23)cc1 [Doramapimod] (1 nM) | 88.6
O=P1(NCCCl)OCCCN1CCCl (configuration not stated) [Ifosfamide] (1 nM) | 99.4

Each compound was assayed on MDA-MB-231 in the same assay as above. Details: incubation time: 72 h.
Summary of the method: as §1

Structure (SMILES) | normalised response [%]
Cc1ccc(C(=O)N(CCCN)[C@@H](c2oc3cc(Cl)ccc3c(=O)c2Cc2ccccc2)C(C)C)cc1 (0.1 nM) | 98.7
Clc1ccc(Nc2nnc(Cc3ccncc3)c3ccccc23)cc1 [Vatalanib] (1 nM) | 99.1
COc1cc([C@@H]2c3cc4c(cc3[C@@H](O[C@@H]3O[C@@H]5CO[C@@H](C)O[C@H]5[C@H](O)[C@H]3O)[C@H]3COC(=O)[C@H]23)OCO4)cc(OC)c1O [Etoposide] (1 nM) | 113
CC1(C)NC(=O)N(c2ccc([N+](=O)[O-])c(C(F)(F)F)c2)C1=O [Nilutamide] (1 nM) | 97.4
CO[C@H]1/C=C\C=C(/C)C(=O)NC2=CC(=O)C(NCCN(C)C)=C(C[C@@H](C)C[C@H](OC)[C@H](O)[C@@H](C)/C=C(\C)[C@@H]1OC(N)=O)C2=O [Alvespimycin] (0.1 nM) | 98.5
O=C1CCC(N2C(=O)c3ccccc3C2=O)C(=O)N1 (configuration not stated) [Thalidomide] (1 nM) | 104
Cc1ccc(-n2nc(C(C)(C)C)cc2NC(=O)Nc2ccc(OCCN3CCOCC3)c3ccccc23)cc1 [Doramapimod] (1 nM) | 97.9
O=P1(NCCCl)OCCCN1CCCl (configuration not stated) [Ifosfamide] (1 nM) | 97

Each compound was assayed on CAL-85-1 in the same assay as above. Details: incubation time: 72 h.
Summary of the method: as §1

Structure (SMILES) | normalised response [%]
Cc1ccc(C(=O)N(CCCN)[C@@H](c2oc3cc(Cl)ccc3c(=O)c2Cc2ccccc2)C(C)C)cc1 (0.1 nM) | 96
Clc1ccc(Nc2nnc(Cc3ccncc3)c3ccccc23)cc1 [Vatalanib] (1 nM) | 102
COc1cc([C@@H]2c3cc4c(cc3[C@@H](O[C@@H]3O[C@@H]5CO[C@@H](C)O[C@H]5[C@H](O)[C@H]3O)[C@H]3COC(=O)[C@H]23)OCO4)cc(OC)c1O [Etoposide] (1 nM) | 98.6
CC1(C)NC(=O)N(c2ccc([N+](=O)[O-])c(C(F)(F)F)c2)C1=O [Nilutamide] (1 nM) | 100
CO[C@H]1/C=C\C=C(/C)C(=O)NC2=CC(=O)C(NCCN(C)C)=C(C[C@@H](C)C[C@H](OC)[C@H](O)[C@@H](C)/C=C(\C)[C@@H]1OC(N)=O)C2=O [Alvespimycin] (0.1 nM) | 100
O=C1CCC(N2C(=O)c3ccccc3C2=O)C(=O)N1 (configuration not stated) [Thalidomide] (1 nM) | 100
Cc1ccc(-n2nc(C(C)(C)C)cc2NC(=O)Nc2ccc(OCCN3CCOCC3)c3ccccc23)cc1 [Doramapimod] (1 nM) | 91.3
O=P1(NCCCl)OCCCN1CCCl (configuration not stated) [Ifosfamide] (1 nM) | 93.9

These compounds were tested on MDA-MB-453 in the same assay as above. Details: incubation time: 72 h.
Summary of the method: as §1

Structure (SMILES) | normalised response [%]
Cc1ccc(C(=O)N(CCCN)[C@@H](c2oc3cc(Cl)ccc3c(=O)c2Cc2ccccc2)C(C)C)cc1 (0.1 nM) | 100
Clc1ccc(Nc2nnc(Cc3ccncc3)c3ccccc23)cc1 [Vatalanib] (1 nM) | 103
COc1cc([C@@H]2c3cc4c(cc3[C@@H](O[C@@H]3O[C@@H]5CO[C@@H](C)O[C@H]5[C@H](O)[C@H]3O)[C@H]3COC(=O)[C@H]23)OCO4)cc(OC)c1O [Etoposide] (1 nM) | 106
